For one series, the system named is HeLa. Briefly: Cytotoxicity against human HeLa cells assessed as reduction in cell viability by MTT assay. Type of series: functional, cell-based.
The next series has as its system UMUC3. Nature of the series: Cytotoxicity against human UMUC3 cells assessed as reduction in cell viability by MTT assay. Type of series: functional, cell-based.
The next series has as its system A549. Briefly: Cytotoxicity against human A549 cells assessed as reduction in cell viability by MTT assay. It counts as functional, cell-based.
For another series, the system named is HGC-27. Nature of the series: Cytotoxicity against human HGC-27 cells assessed as reduction in cell viability by MTT assay. It counts as functional, cell-based.
Series [1] can be described thus: Cytotoxicity against human Huh-7 cells assessed as reduction in cell growth. It counts as toxicity, cell-based.
Series [2] deals with HepG2. Briefly: Cytotoxicity against human HepG2 cells assessed as reduction in cell growth. Type of series: functional, cell-based.
The subject of series [3] is HL-60. Briefly: Cytotoxicity against human HL-60 cells assessed as reduction in cell viability. It counts as functional, cell-based.
Series [4] relates to HL-60. Briefly: Cytotoxicity against human HL-60 cells assessed as reduction in cell viability measured for 24 hrs by MTT assay. It counts as functional, cell-based. As to conditions: HL-60, 24 h.
In series [5] the test system is P388. Briefly: Cytotoxicity against mouse P388 cells assessed as reduction in cell viability by SRB assay. Type of series: functional, cell-based.
The nature of series [6]: Cytotoxicity against human A2780cis cells assessed as inhibition of cell growth incubated for 72 hrs by SRB assay. Type of series: functional, cell-based.
Series [7] relates to HepG2. Nature of the series: Cytotoxicity against human HepG2 cells assessed as reduction in cell growth incubated for 48 hrs by SRB assay. It counts as functional, cell-based. As to conditions: HepG2, 48 h.
In series [8] the test system is U-937. Briefly: Cytotoxicity against human U-937 cells assessed as reduction in cell viability incubated for 72 hrs by MTT assay. It counts as functional, cell-based. As to conditions: U-937, 72 h.
Another series deals with HEK293. Nature of the series: Cytotoxicity against HEK293 cells assessed as cell growth inhibition. Type of series: functional, cell-based. As to conditions: Homo sapiens.
In series [9] the test system is NCI-H460. Nature of the series: Cytotoxicity against human NCI-H460 cells assessed as reduction in cell growth incubated for 48 hrs by SRB assay. It counts as functional, cell-based. As to conditions: NCI-H460, 48 h.
For series [10], the system named is NCI-H460. Briefly: Cytotoxicity against human NCI-H460 cells assessed as reduction in cell growth incubated for 72 hrs by SRB assay. As to conditions: NCI-H460, 72 h. It counts as functional, cell-based.
Series [11] deals with HepG2. Nature of the series: Cytotoxicity against human HepG2 cells assessed as reduction in cell growth incubated for 72 hrs by SRB assay. Type of series: functional, cell-based. As to conditions: HepG2, 72 h.
Series [12] is described as follows: Cytotoxicity against mouse FM3A tsFT210 cells assessed as inhibition of cell growth. It counts as functional, cell-based.
The test system of series [13] is SF-268. Briefly: Cytotoxicity against human SF-268 cells assessed as reduction in cell growth incubated for 48 hrs by SRB assay. As to conditions: SF-268, 48 h. It counts as functional, cell-based.
Series [14] deals with HCT-116. Briefly: Cytotoxicity against human HCT-116 cells assessed as reduction in cell viability incubated for 72 hrs by MTT assay. Type of series: functional, cell-based. As to conditions: HCT-116, 72 h.
Series [15] deals with SF-268. Briefly: Cytotoxicity against human SF-268 cells assessed as reduction in cell growth incubated for 72 hrs by SRB assay. Type of series: functional, cell-based. As to conditions: SF-268, 72 h.
Series [16] deals with U-937. Briefly: Cytotoxicity against human U-937 cells assessed as reduction in cell viability. It counts as functional, cell-based.
Series [17] has as its system HCT-116. Briefly: Cytotoxicity against human HCT-116 cells assessed as reduction in cell viability incubated for 24 hrs by MTT assay. As to conditions: HCT-116, 24 h. Type of series: functional, cell-based.
Series [18] deals with PC-3. Briefly: Cytotoxicity against human PC-3 cells assessed as reduction in cell viability. Type of series: functional, cell-based.
For series [19], the system named is MCF7. Briefly: Cytotoxicity against human MCF7 cells assessed as reduction in cell growth incubated for 48 hrs by SRB assay. It counts as functional, cell-based. As to conditions: MCF7, 48 h.
The subject of series [20] is MCF7. Briefly: Cytotoxicity against human MCF7 cells assessed as reduction in cell growth incubated for 72 hrs by SRB assay. It counts as functional, cell-based. As to conditions: MCF7, 72 h.
For another series, the system named is RKO. Nature of the series: Cytotoxicity against human RKO cells assessed as inhibition of cell growth measured after 48 hrs by MTT assay. Type of series: functional, cell-based.
The test system of series [21] is PC-3. Nature of the series: Cytotoxicity against human PC-3 cells assessed as reduction in cell viability measured after 72 hrs by MTT assay. It counts as functional, cell-based. As to conditions: PC-3, 72 h.
Series [22] concerns K562. Nature of the series: Cytotoxicity against human K562 cells assessed as reduction in cell viability by MTT assay. It counts as functional, cell-based.
Series [23] relates to HCT-116. Nature of the series: Cytotoxicity against human HCT-116 cells assessed as inhibition of cell growth incubated for 72 hrs by SRB assay. Type of series: functional, cell-based. As to conditions: HCT-116, 72 h.
The subject of series [24] is K562. Briefly: Cytotoxicity against human K562 cells assessed as reduction in cell growth by MTT assay. It counts as functional, cell-based.
A short description of series [25]: Cytotoxicity against human A2780cis cells assessed as cell growth inhibition by SRB assay. It counts as functional, cell-based.
The subject of a further series is L5178Y. Briefly: Cytotoxicity against mouse L5178Y cells assessed as reduction in cell growth by MTT assay. It counts as functional, cell-based.
Series [26] deals with P388. Nature of the series: Cytotoxicity against mouse P388 cells assessed as reduction in cell growth. Type of series: functional. As to conditions: read-out: ED50 (the source's name).
Series [27] has as its system NCI-H460. Briefly: Cytotoxicity against human NCI-H460 cells assessed as reduction in cell growth by MTT assay. It counts as functional, cell-based.
Series [28] has as its system HepG2. Nature of the series: Cytotoxicity against human HepG2 cells assessed as reduction in cell growth by MTT assay. It counts as functional, cell-based.
For series [29], the system named is MCF7. Nature of the series: Cytotoxicity against human MCF7 cells assessed as reduction in cell growth incubated for 48 hrs by MTT assay. As to conditions: MCF7, 48 h. Type of series: functional, cell-based.

≈ marks a conversion by molar mass, not a printed value.

For the compound `CS[C@@H]1C(=O)N[C@](Cc2ccc(OCC=C(C)C)cc2)(SC)C(=O)N1C`, in the series on HeLa, the half-inhibitory concentration (IC50) came to 4200 nM.

On to `CC(C)C[C@H]1NC(=O)[C@H](CCC(N)=O)n2c1nc1ccccc1c2=O`, for which the IC50 with UMUC3 worked out at 7200 nM; in the series with A549 it was 6000 nM; in the series with HGC-27, 6200 nM.

Regarding `C[C@H]1CN2CC[C@]34C[C@@]5(C(=O)Nc6c5ccc5c6C(=O)CC(C)(C)O5)C(C)(C)[C@@H]3[C@@]2(C1)C(=O)N4C`, the figures for the IC50 (in series [1]; in the series on HepG2 [2]) were 2800 nM and 3700 nM, respectively.

Consider `COc1ccc2c(c1)N[C@@]1(C2=O)[C@H](C=C(C)C)N2C(=O)[C@]3(O)CCCN3C(=O)[C@]2(O)[C@H]1O`, for which the IC50 with HL-60 [3] came to 6000 nM.

On to `CC1(C)C=Cc2c(ccc3c2NC(=O)C(C)(C)/C=C\N2C(=O)C4=CCCN4C(=O)[C@@H]2CC3=O)O1`, for which the half-maximal inhibitory concentration (IC50) in the series with HL-60 [4] was found to be 8700 nM.

As to `C=CC(C)(C)c1[nH]c2ccccc2c1/C=C1\NC(=O)[C@]2(C[C@H](C)C=C[C@@H]2CCc2c(O)cc(CC=C(C)C)c(O)c2C=O)NC1=O`, the IC50 in the series on P388 [5] was 1830 nM.

Take `O=C1N2[C@H]3C(=CC=C[C@@H]3O)C[C@]23SS[C@]12C[C@H]1[C@@H]([C@@H](O)C=C[C@@H]1O)N2C3=O`: the 50% inhibitory concentration (IC50) in [6] amounted to 661 nM.

In the case of `CN1C(=O)[C@]23CC4=CC=C[C@H](O)[C@H]4N2C(=O)[C@@]1(CO)SS3` [GLIOTOXIN], the IC50 worked out at 210 nM in the series on HepG2 [7]; 520 nM with U-937 [8]; 1580 nM with HEK293; 240 nM with NCI-H460 [9]; 210 nM in the series with NCI-H460 [10]; 240 nM in the series on HepG2 [11]. The IC50 in [12] stood at 0.15 µg/mL (≈ 0.46 µM); with SF-268 [13], 240 nM; in the series with HCT-116 [14], 410 nM; in the series with SF-268 [15] it was 240 nM; in the series on U-937 [16], 200 nM; in the series with HCT-116 [17], 1240 nM. Further, the IC50 in the series on PC-3 [18] was 390 nM; with MCF7 [19], 80 nM; in the series with MCF7 [20], 80 nM; with RKO, 800 nM; in the series with PC-3 [21], 15900 nM.

For `CS[C@@H]1C(=O)N(C)/C(=C/c2ccc(OCC=C(C)C)cc2)C(=O)N1C`, the IC50 with K562 [22] turned out to be 12700 nM.

As for `O=C1N[C@@](O)(Cc2ccccc2)C(=O)N2CCC[C@@H]12`, in the series with HCT-116 [23], the IC50 was 23000 nM.

`C[C@]12NC(=O)[C@@H](Cc3c1[nH]c1ccccc31)n1c2nc2ccccc2c1=O`: the IC50 in the series with K562 [24] was 15000 nM; in series [25], 38800 nM; in the series with L5178Y, 3600 nM.

Regarding `CN1C(=O)[C@@]23SS[C@]1(C)C(=O)N2[C@H]1Nc2ccccc2[C@@]1(c1c[nH]c2ccccc12)[C@@H]3O`, the EC50 in the series on P388 [26] stood at 2.4 µg/mL (≈ 5.17 µM). Besides, the IC50 in the series on NCI-H460 [27] was found to be 230 nM; with HepG2 [28], 530 nM; in the series on MCF7 [29] it was 230 nM.

The record behind these values is ChEMBL document CHEMBL5500324, “The potential of marine-derived piperazine alkaloids: Sources, structures and bioactivities” (Eur J Med Chem, 2024).
